Results on eleven compounds are retold here after patent US20030134859A1 (SANKYO COMPANY, LIMITED, priority 2000, published 2003).

The test system of test [1] is Mouse preadipocyte strain 3T3-L1. The experiment in a line: Inhibition of differentiation as an indication of acetic acid uptake. Format: cell-based. To be noted: control (0.01% dimethylsulfoxide) = 100%; for activity at 0.1 µM: Mus musculus, 3T3-L1, 0.1 μM test substance, read-out: Rate of Uptake (%) of [2-14C] acetic acid; for Rate of Uptake (%) of [2-14C] acetic acid: 0.1 μM test substance. The procedure, abridged:
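Differentiation is indexed by 1 hr [2-14C]acetic acid incorporation, measured by scintillation counting and given as uptake relative to 0.01% DMSO control (100%). Mouse 3T3-L1 preadipocytes, pre-grown 10 days, received 0.1 μM test substance throughout a 4-day insulin/IBMX/dexamethasone induction, followed by 2 days' maintenance culture.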

Test [2] relates to Rat white adipocytes. The experiment in a line: Stimulation of differentiation of the adipocytes (Oil Red O). Type of test: cell-based. To be noted: 100 nM test compound, 5 days, Oil Red O ABS550, control = 100%, blank = 0%, Table 7; for activity at 0.1 µM: Rattus norvegicus, Adipocyte, 120 h, read-out: Rate of Differentiation (%). The procedure, abridged:
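Oil Red O lipid staining, absorbance 550 nm after DMSO extraction, quantified differentiation of rat white adipocytes exposed 5 days to compound (final 100 nM, 0.1% DMSO) in differentiation medium. Percent differentiation normalised between cell-free blank (0%) and DMSO control (100%).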

For test [3], the system named is human colon cancer cells COL-2-JCK. As to the kind of experiment: Inhibition of colony forming activity in human colon cancer cells. Format: cell-based. The settings on record: 1 μM test compound, 10 days, sum of colony areas vs control; for inhibition at 1 µM: Homo sapiens, 240 h, read-out: Inhibition Rate (%) against the colony forming activity. As for the experimental part: For the medium to culture the human colon cancer cells, D-MEM/F-12 medium containing inactivated bovine fetal serum at a concentration of 10% (GIBCO) was used. The human colon cancer cells COL-2-JCK (purchased from Institute for Experimental Animals) grown in mass formation in a plastic dish for the cell culture with an inner diameter of 100 mm were stripped off from the dish by using EDTA (ethylenediaminetetraacetic acid) and 0.05% trypsin solution. Then, a cell dilution solution was prepared at a concentration of 100 cells/mL solution which was diluted with the medium (D-MEM/F-12).
Three (3) mL of the cell solution were inoculated in each well of a 6-well plastic plate (300 cells/well). The test compound that was dissolved in DMSO solution so as to be a final concentration of 1 μM of the test compound and that of DMSO solution of 0.1% was added to each well. DMSO solution alone was added into the well for the control so as to be a final concentration of 0.1%.
The cells in each well were cultured for 10 days at 37° C. in the presence of 5% CO2. After the culturing was finalised, each well was washed once with Dulbecco-phosphate-buffer-saline solution (bivalent anion). Then, 1.5 ml of neutral buffered formalin solution containing 0.02% crystal violet was added to each well and the plate was kept stationary for 5 min for fixation and staining the cells. After fixation and staining, the cells were washed with water and were air-dried. Then the sum of the colony area (mm^2) of the stained cancer cells was calculated by using an image analyzer PCA-11 (SystemScience). From the calculated values, the inhibition rate (%) of the compound against the colony forming activity was obtained based on the following equation.
Inhibition Rate (%) against the colony forming activity=(1−A/B)×100
A: Sum of Colony Areas in the Group Treated with 1 μM of the Test Compound
B: Sum of Colony Areas in the Control Group

The test system of test [4] is Rat white adipocytes. The experiment in a line: Inhibition of the differentiation of adipocytes (Oil Red O). Format: cell-based. To be noted: Rattus norvegicus, Adipocyte, 120 h, 100 nM test compound; 5 days; Oil Red O ABS550; control = 100%, blank = 0%; Table 3; read-out: Rate of Differentiation (%). The procedure, abridged: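 Rat white preadipocytes, 5,000 cells/well, given differentiation medium with compound at 100 nM final (0.1% DMSO) for 5 days at 37 °C. Lipid stained with Oil Red O, eluted in DMSO, read at 550 nm; differentiation % relative to DMSO control (100%) and blank (0%).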

The next test has as its system leptin production. As to the kind of experiment: Enhancing activity for leptin production in adipocytes (ELISA). Type of test: cell-based, rat. The settings on record: 24 hr, leptin concentration as % of control group. The procedure, abridged:
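Leptin release, quantified by rat leptin ELISA, expressed as percent of 0.1% DMSO control after 24 h at 37 °C. Cells were floating adipocytes isolated by collagenase digestion of epididymal fat from male 6-week Wistar Imamichi rats; compound tested at 1 nM–1 µM final.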

The target of a further test is T1, human PPAR γ 2 (Homo sapiens, UniProt P37231).
T1 construct: expressed in transfected cells; host or cells: human osteosarcoma MG63, transiently co-transfected with pSG5-hPPARg and the reporter pGV-P2-PPRE
T1 sequence (P37231 1-505): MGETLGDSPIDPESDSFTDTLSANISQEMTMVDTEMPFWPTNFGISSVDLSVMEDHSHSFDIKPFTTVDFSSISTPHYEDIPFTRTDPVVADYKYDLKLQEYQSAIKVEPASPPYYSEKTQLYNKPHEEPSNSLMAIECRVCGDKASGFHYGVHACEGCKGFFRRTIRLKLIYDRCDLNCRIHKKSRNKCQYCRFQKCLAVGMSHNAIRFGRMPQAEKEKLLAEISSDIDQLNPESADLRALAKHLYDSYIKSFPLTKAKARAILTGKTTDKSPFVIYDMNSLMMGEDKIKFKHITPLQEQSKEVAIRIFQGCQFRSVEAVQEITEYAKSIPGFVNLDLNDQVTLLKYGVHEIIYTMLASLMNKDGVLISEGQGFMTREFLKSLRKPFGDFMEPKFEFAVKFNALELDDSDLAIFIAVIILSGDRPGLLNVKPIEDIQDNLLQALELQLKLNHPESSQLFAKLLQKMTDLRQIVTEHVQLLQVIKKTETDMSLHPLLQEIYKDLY
As to the kind of experiment: PPAR γ transcriptional activity, luciferase reporter, test compound alone. Type of test: cell-based. To be noted: concentration indicating Emax/2, MG63 cells transfected with pSG5-hPPARg and pGV-P2-PPRE, 24 hr. As for the experimental part: The primers of the polymerase chain reaction (hereinafter “PCR”) were designed according to the gene sequence of human PPAR γ 2 (GenBANK accession No. D83233). In order to insert the genes into the BamHI site of the plasmid pSG5 ([…] CLONING SYSTEMS), Bgl II sites were added upstream and downstream of the genes encoding human PPAR γ 2 protein. For this, 2 kinds of polynucleotides shown in the sequence numbers 1 and 2 in the sequence table described below (hereinafter “S1” and “AS1”, respectively) were used as PCR primers.
In order to determine transcriptional activity via PPAR γ, 2 kinds of polynucleotides represented in sequence numbers 3 and 4 in the sequence table described below (hereinafter “S2” and “AS2”, respectively) were used for construction of the reporter plasmid having PPAR responsive element. The DNA fragment inserted was designed based on the gene sequence in the promoter region of rat acylCo-A oxidase (J. D. Tugwood, EMBO J., 11 (2), pp433-439 (1992)). For insertion of the DNA fragment into the reporter plasmid pGV-P2 (TOYO INK MFG CO., LTD), a NheI site and an XhoI site were added to the S2 and AS2, respectively.
Using cDNA library (Clontech) derived from human adipose tissue as a template, DNA oligomers S1 and AS1 that were synthesized in the procedure 1 as primers and Ex-Taq™ (TAKARA BIO INC.) as a thermostable DNA polymerase-PCR was carried out. As a result of the PCR, the c.a. 1500 bps DNA fragments were amplified. Each cycle consisted of incubation at 94° C. for 1 min for denaturation of the template, then at 55° C. for 30 sec for annealing of DNA oligomers the PCR primer, and then at 72° C. for 30 sec for extension of the chain. The obtained DNA fragments with approximately 1500 base pairs were digested at the Bgl II sites and were inserted into BamHI sites of pSG5. Thus a human PPAR γ expression plasmid named pSG5-hPPAR g was obtained. The nucleotide sequence of the inserted DNA fragment was confirmed to be identical sequence to the human PPAR γ 2 reported by the dideoxy method.
Vector pGV-P2 digestion products was prepared by digestion using the restriction enzymes, NheI and XhoI, and purified by 1.0% agarose-gel electrophoresis. The DNA oligomers, S2 and AS2 obtained in Procedure 2, were mixed together and were incubated in a hot bath at 94° C. for 1 min. After the annealing was partially broken, they were further incubated at 25° C. for 1 hr. Thus double-stranded DNA with annealing of S2 and AS2 was formed. Then, the terminus of the double-stranded DNA with annealing of S2 and AS2 was phosphorylated with DNA polynucleotide kinase (TOYOBO CO., LTD). After that, it was ligated to the pGV-P2 digestion products which were prepared previously using the NheI site and XhoI site. Thus the reporter plasmid pGV-P2-PPRE was obtained.
Using the plasmid obtained by the procedures 3 and 4, transformation of Escherichia coli HB-101 strain was carried out by conventional methods. HB-101 strain having the plasmid was incubated in L-broth medium (containing 10 g of trypton (Difco), 5 g of yeast extract (Difco), 5 g of sodium chloride in 1 L of aqueous solution) containing 100 μg/ml of ampicillin at 37° C. for 17 hrs. Then, each plasmid was purified by the alkaline-SDS method and employed for the gene transfection to mammalian cells. After mixing the pSG5-hPPARg, PGV-P2-PPRE and LipofectAMINE reagent (GIBCO BRL), the human osteosarcoma MG63 was transiently transfected. Then the cells were recovered. The recovered cells were plated on a 96-well plate so as to be 30,000 cells/well and cultured in a CO2 incubator (NAPCO) at 37° C. for 24 hr under the condition of 5% CO2, 95%-RH.
Various concentrations of the test compound alone were added to culturing medium of the cells prepared in the Procedure 5. After 24 hr of culturing, LT2.0 (TOYO INK MFG CO., LTD), a luciferase substrate, was added to the medium free culture plate. […]
(In general: In a reporter assay the amount or activity of a reporter protein is the signal.)

SMILES strings stand for the structures.

As for `O=C(Nc1nc2ccccc2s1)c1cc([N+](=O)[O-])ccc1Cl` [Example 33, N-(Benzothiazol-2-yl)-(2-chloro-5-nitrophenyl)carboxamide], the activity at 0.1 µM in test [1] is 86.1%; in the test on Rat white adipocytes [2], 127%. The inhibition at 1 µM in test [3] came out at 60%.

Take `O=C(Nc1nc2c(Cl)cccc2s1)c1cc([N+](=O)[O-])ccc1Cl` [Example 69, N-(4-Chlorobenzothiazol-2-yl)-(2-chloro-5-nitrophenyl)carboxamide]: the activity at 0.1 µM in test [1] is 57%; in the test with Rat white adipocytes [2], 135%. For the same compound, the inhibition at 1 µM in test [3] was determined as 84%.

For `COC(=O)c1cccc(NC(=O)c2cc([N+](=O)[O-])ccc2Cl)c1` [Example 143, Methyl 3-(2-chloro-5-nitrobenzoylamino)benzoate], the activity at 0.1 µM in the test with Rat white adipocytes [4] came out at 84.9%; in test [1] it was 60.1%. In addition, in test [3], the inhibition at 1 µM is 25%.

As for `O=C(Nc1ccc(S(=O)(=O)Nc2ccccn2)cc1)c1cc([N+](=O)[O-])ccc1Cl` [Example 100, N-[4-[(Pyridin-2-yl)aminosulfonyl]phenyl]-(2-chloro-5-nitrophenyl)carboxamide], the inhibition at 1 µM in test [3] turned out to be 50%.

On to `CCCCOc1ccc(NC(=O)c2cc([N+](=O)[O-])ccc2Cl)cc1` [Example 17, N-(4-Butyloxyphenyl)-(2-chloro-5-nitrophenyl)carboxamide], for which the activity at 0.1 µM in test [1] stood at 91.9%; with Rat white adipocytes [2], 114%. Further, the inhibition at 1 µM in test [3] is 30%.

Take `Cl.O=C(Nc1ccc(-c2ccccn2)cc1)c1cc([N+](=O)[O-])ccc1Cl` [Example 147, N-[4-(Pyridin-2-yl)phenyl]-(2-chloro-5-nitrophenyl)carboxamide Hydrochloride]: the “Rate of Uptake (%) of [2-14C] acetic acid” value in test [1] was 76.2%. The “Rate of Differentiation (%)” value in the test with Rat white adipocytes [2] worked out at 115.5%. Also, the inhibition at 1 µM in test [3] is 19%.

With `Cc1cc(NS(=O)(=O)c2ccc(NC(=O)c3cc([N+](=O)[O-])ccc3Cl)cc2)nc(C)n1` [Example 98, N-[[4-(2,6-Dimethylpyrimidin-4-yl)aminosulfonyl]phenyl]-(2-chloro-5-nitrophenyl)carboxamide], the “Facilitating activity to produce leptin” value was 117.0% in the test with leptin production (1 μM) and 110.1% with leptin production (100 nm). In addition, the “Rate of Uptake (%) of [2-14C] acetic acid” value in test [1] was 89.1%. For the same compound, in test [3], the “Inhibition Rate (%) against the colony forming activity” value came out at 25.0%.

Take `CC(C)(C)OC(=O)Nc1ccc(NC(=O)c2cc([N+](=O)[O-])ccc2Cl)cc1` [Example 45, N-[4-(tert-Butyloxycarbonylaminophenyl)]-(2-chloro-5 nitrophenyl)carboxamide]: the “Rate of Uptake (%) of [2-14C] acetic acid” value in test [1] came out at 68.9%. In addition, in test [3], the “Inhibition Rate (%) against the colony forming activity” value was found to be 32.0%.

Take `O=C(Nc1ccc(O)cc1)c1cc([N+](=O)[O-])ccc1Cl` [Example 193, N-(4-Hydroxyphenyl)-(2-chloro-5-nitrophenyl)carboxamide]: the EC50 on human PPAR γ 2 was found to be 31 nM. Moreover, the activity at 0.1 µM with Rat white adipocytes [4] was 62.4%.

As for `O=C(Nc1ccc(S(=O)(=O)Nc2ccc3cn[nH]c3c2)cc1)c1cc([N+](=O)[O-])ccc1Cl` [Example 103], at human PPAR γ 2, the concentration giving a half-maximal response (EC50) came to 8.8 nM. Also, the activity at 0.1 µM in test [1] worked out at 72.1%.

Take `Cc1cccc(NC(=O)c2cc([N+](=O)[O-])ccc2Cl)c1` [Example 11, N-(3-Methylphenyl)-(2-chloro-5-nitrophenyl)carboxamide]: the activity at 0.1 µM in test [1] turned out to be 67.3%. The inhibition at 1 µM in test [3] came to 15%.

As usually defined, the inhibition is the relative decrease from the control value, in per cent. The term EC50 denotes the concentration that produces a half-maximal response. A higher EC50 goes with weaker potency.
